Results taken from the METLIN SMRT retention time set (Domingo-Almenara et al. 2019).

Test: gradient 5% acetonitrile 3 min, to 50% in 2 min, to 85% in 15 min, held 3 min, 100 µL/min
Conditions: column: Zorbax Extend-C18 2.1 x 50 mm; eluents: water / acetonitrile, 0.1% formic acid
In short: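 A Zorbax Extend-C18 column (2.1 × 50 mm, 1.8 μm) run at 100 μL/min with water and acetonitrile, both containing 0.1% formic acid, separated mixtures of ~100 pure standards. The HPLC was coupled to a quadrupole time-of-flight mass spectrometer operated in positive and negative ionization mode, with dead and dwell volumes of 40 μL and 900 μL. Each retention time was taken from a computationally picked adduct peak that was then manually inspected.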

RP-LC retention time [s]	SMILES
815	O=C(Nc1nnc(C(F)(F)F)s1)C1CCN(C(=O)c2ccc(F)cc2)CC1
739	CCOC(=O)c1[nH]c(C)c(C(=O)N2CCC(CC(=O)N3CCCCCC3)CC2)c1C
788	COc1cccc(-c2cc3n(n2)CCCN(C(=O)COc2ccccc2)C3)c1
784	CCc1ccccc1S(=O)(=O)N1CCC(n2cnnc2C(C)C)CC1
842	Cc1cc(C)cc(N2CCC(NC(=O)c3cccs3)C2=O)c1 (centres undefined)
829	Cc1ccc(F)cc1NC(=O)Cn1nc2c(Oc3cccc(F)c3)nccn2c1=O
948	CCCn1cc(S(=O)(=O)NCc2ccc(F)cc2Cl)c2cccnc21
1260	Clc1ccc(-c2csc(N3CCOCC3)n2)c(Cl)c1
771	O=C(Cc1c(F)cccc1Cl)Nc1cnn(-c2ncc(N3CCCC3)cn2)c1
860	Cc1ccc(C(=O)NC2CCN(c3cc(-c4ccc(Cl)cc4)[nH]n3)C2)cc1C (centres undefined)
832	CCCSCCCNC(=O)CN1C(=O)CCn2nc(-c3cn(C)c4ccccc34)cc21
956	CC1CCN(C(=O)CN2C(=O)CCCc3cc(S(=O)(=O)N4CCCCCC4)ccc32)CC1
1030	CC1CCN(S(=O)(=O)c2ccc(-c3nnc(C(=O)NC4CCCC4)o3)cc2)CC1
871	COc1ccc(Cc2nc3nccc(-c4cccs4)n3n2)cc1
885	O=C(Cn1cnc2nc(N3CCC(C(=O)NC4CC4)CC3)sc2c1=O)Nc1ccccc1F
686	CCC(=O)N1CCc2cc(N3CC(C(=O)NC4CCCC4)CC3=O)ccc21 (centres undefined)
903	Cc1nc(-c2ccc(-c3noc(CNC(=O)Cc4ccccc4)n3)cc2)cs1
1080	COc1ccc(-c2noc(-c3nc(-c4cc(OC)c(OC)c(OC)c4)no3)n2)cc1
835	CCCn1cc(CCNC(=O)Nc2ccc(Br)cc2)c2cccnc21
701	CCCCN(Cc1ccco1)C(=O)Cn1nc(Cc2cccnc2)c2ccccc2c1=O
802	Cc1ccc(Cl)cc1NC(=O)C1CCCN(c2nnc(C)c3c(C)n(-c4ccccc4)nc23)C1 (centres undefined)
950	CCc1cc(C(=O)N2CCCC2)nc2cc(-c3ccsc3)nn12

RP-LC retention time [s]	SMILES
543	CCN(CC)c1nc(C(=O)N2CCN(C(C)C)CC2)nc2nc(C)cc(C)c12
780	COc1ccc(NC(=O)c2ccc(-n3cnc(NC(=O)C4CC4)c3)cc2)cc1Cl
639	Cc1cnc(C2CN(Cc3ccc(C(F)(F)F)cc3)C2)n1Cc1ccccc1
1020	COc1cccc(-c2nnc(Cc3nc(-c4ccccc4F)no3)o2)c1
1020	Cc1cccc(NC(=O)C2CCCN(c3nc4ccsc4c(=O)n3-c3cccc(C)c3)C2)c1 (centres undefined)
666	CNC(=O)[C@@H]1C[C@H](Oc2ccccc2)CN1C(=O)c1ccoc1
1010	CCc1nc(-c2csc(S(=O)(=O)N3CCCC(C(=O)Nc4cccc(C#N)c4)C3)c2)no1 (centres undefined)
913	Cc1cc(C)cc(NC(=O)Cn2c(=O)nc(N3CCCC(C)C3)c3ccccc32)c1 (centres undefined)
1040	COC(=O)c1sccc1NC(=O)N1CCCC1c1noc(COc2ccc(F)cc2)n1 (centres undefined)
1390	CCCOc1nc2ccccc2nc1N1CCCC(C(=O)Nc2cc(C)cc(C)c2)C1 (centres undefined)
890	Cc1ccc(C(=O)CSc2ccc(NC(=O)C(C)C)nn2)c(C)c1
707	CC(C)c1cccc(Nc2nc3ccncc3n(C(C)C)c2=O)c1
875	COc1ccc(C(=O)N2CCc3cn(C)c4cccc(c34)C2)c(OC)c1
1140	O=C(NCCc1ccccc1)c1cc2sccc2n1Cc1ccc(F)cc1
787	O=C(NC1CCCC1)N1CCN(Cc2nc3cc(-c4ccccc4)ccc3o2)CC1
819	Cc1ccc(S(=O)(=O)N2CCCC(Cn3c(C4CC4)nc4cccnc43)C2)cc1F (centres undefined)
780	CCN1C(=O)Cc2cc(C(=O)N3CCN(c4ccccn4)CC3)ccc21
843	COc1cccc(-c2nc(-c3ccc4c(c3)nc(C)c(=O)n4C)no2)c1
806	O=C(CCc1ccc2cc[nH]c2c1)NCc1cccs1
1000	c1ccc(CCNc2nc(-c3ccccc3)no2)cc1
721	COc1ccc(OC)c(NC(=O)N2CCN(Cc3nc4cc(C)ccc4o3)CC2)c1
1070	CN(C)c1cccc(-c2nc(-c3ccc4nnn(C)c4c3)no2)c1

RP-LC retention time [s]	SMILES
779	CCn1ccc(NC(=O)NC2CCCCC2)n1
1090	CSc1ccc(CNC(=O)C2CCCN(c3ncc(-c4ccc(F)cc4)cn3)C2)cc1 (centres undefined)
762	O=S(=O)(c1ccc2c(c1)OCCO2)N1CCN(S(=O)(=O)C2CC2)CC1
759	COCC1CN(C(=O)c2ccco2)CCC1(F)F (centres undefined)
1100	CC1(C)CC(=O)c2cc3c(N)c(C(=O)Nc4ccccc4[N+](=O)[O-])sc3nc2C1
1110	CCSc1nc2ccc(NS(=O)(=O)c3ccc(F)cc3Cl)cc2s1
1230	Cc1ccc(-c2nnc(Cc3nc(-c4ccc(Br)cc4)no3)o2)cc1C
765	COCCN1CC2(CCN(S(=O)(=O)c3ccc(C)c(Cl)c3)CC2)C1c1ccccc1 (centres undefined)
813	Cc1ccc(NC(=O)c2csc(-c3ccc(N4CCCC4)nc3)n2)c(C)c1
1140	CSc1ccc(-c2nc3cnccn3c2Nc2ccc(C)cc2Br)cc1
881	COc1ccc(-c2noc(C3CCCN3C(=O)c3ccc(N(C)C)cc3)n2)cc1OC (centres undefined)
1030	O=C(c1ccc(Br)cc1)N1CCc2cc(-c3ccno3)ccc21
739	CCc1ccccc1S(=O)(=O)Nc1ccc2c(c1)nc(-c1ccc(C(=O)N(CC)CC)cc1)n2C
1150	O=C(c1cccs1)N1CCc2cc(-c3csc(C4CC4)n3)ccc21
688	O=C(NC1CC1)c1ccc2ccnc(N3CCN(c4ccc(F)cc4)CC3)c2c1
1280	COc1ccc(C)cc1NC(=O)C(=O)NCCc1csc(-c2ccc(Cl)cc2)n1
663	Cc1cnc(CC2CCN(S(=O)(=O)Cc3ccccc3)C2)n1C(C)C (centres undefined)
1100	COc1cccc(-n2cc(C(=O)OCc3ccco3)c3ccccc3c2=O)c1
987	CN(C)S(=O)(=O)c1ccc2c(c1)N(CC(=O)NCc1ccccc1)C(=O)C1CCCCN21 (centres undefined)
694	CS(=O)(=O)N1CCC(C(=O)NCc2csc(-c3cccs3)n2)CC1
978	COc1cccc(-n2c(=O)c3sccc3n(Cc3nc(-c4cccc(C)c4)no3)c2=O)c1
729	Cc1ccc(C)c(NC(=O)N2CCCC2c2nncn2-c2ccccc2)c1 (centres undefined)

RP-LC retention time [s]	SMILES
553	COc1nn(C)cc1C(=O)N1CCC(C(=O)NCC2CCCO2)CC1 (centres undefined)
606	Cc1ccc(NC(=O)C2CC(=O)N(c3n[nH]c4cccc(F)c34)C2)nc1 (centres undefined)
719	COc1ccc(-c2nc3cnccn3c2NCc2ccccc2)cc1
581	COC(=O)c1cc(Nc2ccc(OC)cc2OC)c2ccccc2n1
955	Cc1ccccc1S(=O)(=O)N1CCc2c(c(-c3nnc(-c4ccc(F)cc4)o3)nn2C)C1
580	CCC(=O)N1CCc2cc(N3CC(C(=O)N4CCN(C(C)C)CC4)CC3=O)ccc21 (centres undefined)
1120	Cc1ccccc1Nc1nc(-c2ccccc2)cs1
882	COc1cccc(NC(=O)C2CCCN(S(=O)(=O)c3c[nH]c(C(=O)N4CCCCCC4)c3)C2)c1 (centres undefined)
728	Cn1nnnc1SCC(=O)OCc1cc(-c2ccco2)on1
690	Cc1ccc2nc3c(c(C(=O)NC4CCCC4)c2c1)CCC3
828	C[C@@H](NCCCc1cccc(C(F)(F)F)c1)c1cccc2ccccc12
751	CCOc1cc(=O)c(C(=O)N2CCN(c3ncccn3)CC2)nn1-c1ccc(C)cc1
1040	Cc1sc(-c2cc(C(F)(F)F)on2)cc1S(=O)(=O)NC1CC1
731	CC(C)Cn1c(=O)c2nscc2n(CC(=O)NC2CCCC2)c1=O
1010	O=C(Nc1ccc2c(c1)OCO2)N1CCN(c2nc3ccccc3n(Cc3ccccc3)c2=O)CC1
654	O=C(c1ccnnc1)N1C[C@@H](COCC2CC2)[C@H](c2ccccn2)C1
653	CC(=O)NCc1nc(-c2ccc(N3CCSCC3)nc2)no1
769	COCCCNC(=O)c1ccc(N2CCCN(Cc3ccccc3C)C2=O)cc1
754	O=C(CCn1cnc2cc(-c3noc(-c4ccc(Cl)cc4)n3)ccc21)N1CCOCC1
648	O=C(Nc1ccc(-c2nnc3n2CCCC3)cc1)C1CCCC1
798	Cc1cc(C)c(S(=O)(=O)Nc2ccc(Cn3cncn3)cc2)c(C)c1
823	CCOC(=O)c1cc(S(=O)(=O)N2CCCC2C(=O)NCc2cccs2)cn1C (centres undefined)

SMILES	RP-LC retention time [s]
CCN1CCN(C(=O)Cc2c(C)nc3nc(-c4ccccc4)nn3c2C)CC1	589
